From patent US20170305943A1, “COMPOUNDS FOR THE TREATMENT OF BACTERIAL INFECTIONS” (priority 2014, published 2017)
Converted amounts (≈) assume the structure as drawn.

These compounds were tested on Clostridium difficile (Isolate ID ATCC 9689) (assay: Bacterial Assay: Determination of Antibacterial Activity (MIC, broth microdilution or agar dilution)). Conditions: Clostridioides difficile, ATCC9689, 48 h, read-out: C. difficile MIC Activity Range.
Assay type: cell-based
Outline: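 MICs were set by CLSI broth microdilution or agar dilution for anaerobes, read visually after 48 hours at 37° C. under anaerobic gas packs. Medium was reinforced clostridial medium with 0.1% defibrinated horse blood; values are binned as A ≦1.01, B >1.0-4.0, C >4.0-16 μg/mL.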

Structure (SMILES)	MIC
NC(=O)c1c(F)ccc(OCCc2nc(-c3ccc(OC(F)(F)F)cc3)no2)c1F [Compound 117, 2,6-difluoro-3-(2-{3-[4-(trifluoromethoxy)phenyl]-1,2,4-oxadiazol-5-yl}ethoxy)benzamide]	< 1.01 µg/mL
NC(=O)c1c(F)ccc(OCCc2nc(-c3ccc(S(F)(F)(F)(F)F)cc3)no2)c1F [Compound 118, 2,6-difluoro-3-(2-{3-[4-(pentafluoro-lambda~6~- sulfanyl)phenyl]-1,2,4-oxadiazol-5-yl}ethoxy)benzamide]	< 1.01 µg/mL
N/C(=N\O)c1c(F)ccc(OCc2nc(-c3ccc(OC(F)(F)F)cc3)ns2)c1F [Compound 119, 2,6-difluoro-N′-hydroxy-3-({3-[4-(trifluoromethoxy)phenyl]-1,2,4-thiadiazol-5-yl}methoxy)benzenecarboximidamide]	1 to 4 µg/mL (≈ 2.24 to 8.96 µM)
NC(=O)c1c(F)ccc(OCc2nc(-c3ccc(S(F)(F)(F)(F)F)cc3)no2)c1F [Compound 120, 2,6-difluoro-3-({3-[4-(pentafluoro-lambda~6~- sulfanyl)phenyl]-1,2,4-oxadiazol-5-yl}methoxy)benzamide]	4 to 16 µg/mL (≈ 8.75 to 35 µM)
NC(=O)c1c(F)ccc(OCc2nc(-c3ccc(S(F)(F)(F)(F)F)cc3)co2)c1F [Compound 121, 2,6-difluoro-3-({4-[4-(pentafluoro-lambda~6~- sulfanyl)phenyl]-1,3-oxazol-2-yl}methoxy)benzamide]	1 to 4 µg/mL (≈ 2.19 to 8.77 µM)
NC(=O)c1c(F)ccc(NCc2nc(-c3ccc(C(F)(F)F)cc3)cs2)c1F [Compound 122, 2,6-difluoro-3-[({4-[4-(trifluoromethyl)phenyl]-1,3-thiazol-2-yl}methyl)amino]benzamide]	< 1.01 µg/mL
CCCCCCCCCNc1ccc(F)c(C(N)=O)c1F [Compound 123, 2,6-difluoro-3-(nonylamino)benzamide]	1 to 4 µg/mL (≈ 3.35 to 13.4 µM)
NC(=O)c1c(F)ccc(OCCCOc2ccc(Cl)cc2)c1F [Compound 124, 3-[3-(4-chlorophenoxy)propoxy]-2,6-difluorobenzamide]	1 to 4 µg/mL (≈ 2.93 to 11.7 µM)
NC(=O)c1c(F)ccc(OCCCOc2ccc(C(F)(F)F)cc2)c1F [Compound 125, 2,6-difluoro-3-{3-[4-(trifluoromethyl)phenoxy]propoxy}benzamide]	1 to 4 µg/mL (≈ 2.66 to 10.7 µM)
NC(=O)c1c(F)ccc(OCCCCOc2ccc(Cl)cc2Cl)c1F [Compound 137, 3-[4-(2,4-dichlorophenoxy)butoxy]-2,6-difluorobenzamide]	< 1.01 µg/mL
CCOC(=O)c1ccc(OCCCCOc2ccc(F)c(C(N)=O)c2F)cc1 [Compound 138, ethyl 4-[4-(3-carbamoyl-2,4-difluorophenoxy)butoxy]benzoate]	< 1.01 µg/mL
NC(=O)c1c(F)ccc(OCCCCOc2ccccc2Cl)c1F [Compound 139, 3-[4-(2-chlorophenoxy)butoxy]-2,6-difluorobenzamide]	4 to 16 µg/mL (≈ 11.2 to 45 µM)
NC(=O)c1c(F)ccc(OCCCCOc2cccc(Cl)c2)c1F [Compound 140, 3-[4-(3-chlorophenoxy)butoxy]-2,6-difluorobenzamide]	1 to 4 µg/mL (≈ 2.81 to 11.2 µM)
NC(=O)c1c(F)ccc(OCCCCOc2ccc(C(F)(F)F)cn2)c1F [Compound 141, 2,6-difluoro-3-(4-{[5-(trifluoromethyl)pyridin-2-yl]oxy}butoxy)benzamide]	< 1.01 µg/mL
NC(=O)c1c(F)ccc(OCCCCNc2ccc(Cl)cc2)c1F [Compound 142, 3-{4-[(4-chlorophenyl)amino]butoxy}-2,6-difluorobenzamide]	1 to 4 µg/mL (≈ 2.82 to 11.3 µM)
NC(=O)c1c(F)ccc(OCCCCOc2ccc(Cl)cn2)c1F [Compound 143, 3-{4-[(5-chloropyridin-2-yl)oxy]butoxy}-2,6-difluorobenzamide]	< 1.01 µg/mL
NC(=O)c1c(F)ccc(OCCCCOc2ccc(C(F)(F)F)nc2)c1F [Compound 144, 2,6-difluoro-3-(4-{[6-(trifluoromethyl)pyridin-3-yl]oxy}butoxy)benzamide]	1 to 4 µg/mL (≈ 2.56 to 10.2 µM)
NC(=O)c1c(F)ccc(OCCOCCOc2ccc(OC(F)(F)F)cc2)c1F [Compound 145, 2,6-difluoro-3-(2-{2-[4-(trifluoromethoxy)phenoxy]ethoxy}ethoxy) benzamide]	< 1.01 µg/mL
